Laboratory results reported in ChEMBL document CHEMBL1201862, “PubChem BioAssay data set” (2004).
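Exposure lasted 48 hours, with cells grown in 96-well plates and compounds tested at five concentrations. Abbreviation: GI50, concentration required for 50% inhibition of growth.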 Active and inactive are the calls of the source. No stated cut-off is given here; in the data, active = GI50 up to about 1.1 µM and inactive = higher.

How the values were obtained:
Assay in all cases: NCI-60 cell line screen, 48 h
ACHN = system: ACHN
SK-MEL-2 = system: SK-MEL-2
CCRF-CEM = system: CCRF-CEM
RXF 393 = system: RXF 393
SF-268 = system: SF-268
SK-MEL-5 = system: SK-MEL-5
U-251 = system: U-251
SNB-75 = system: SNB-75
NCI-H23 = system: NCI-H23
NCI-H226 = system: NCI-H226
OVCAR-5 = system: OVCAR-5
OVCAR-8 = system: OVCAR-8
UO-31 = system: UO-31
MDA-MB-435 = system: MDA-MB-435
SF-295 = system: SF-295
SW-620 = system: SW-620
HL-60 = system: HL-60
UACC-62 = system: UACC-62
COLO 205 = system: COLO 205
CAKI-1 = system: CAKI-1
T47D = system: T47D
IGROV-1 = system: IGROV-1
A498 = system: A498
DU-145 = system: DU-145
MDA-N = system: MDA-N
Malme-3M = system: Malme-3M
A549 = system: A549
SF-539 = system: SF-539
SK-MEL-28 = system: SK-MEL-28
SN12C = system: SN12C
SNB-19 = system: SNB-19
SK-OV-3 = system: SK-OV-3
HCT-15 = system: HCT-15
UACC-257 = system: UACC-257
786-0 = system: 786-0
NCI/ADR-RES = system: NCI/ADR-RES
HCT-116 = system: HCT-116
OVCAR-4 = system: OVCAR-4
Hs-578T = system: Hs-578T
HCC 2998 = system: HCC 2998
OVCAR-3 = system: OVCAR-3
MDA-MB-231 = system: MDA-MB-231
PC-3 = system: PC-3
MOLT-4 = system: MOLT-4
EKVX = system: EKVX
M14 = system: M14
TK-10 = system: TK-10
MCF7 = system: MCF7
HT-29 = system: HT-29
NCI-H460 = system: NCI-H460
SR = system: SR
K562 = system: K562
HOP-62 = system: HOP-62
NCI-H522 = system: NCI-H522
RPMI-8226 = system: RPMI-8226
KM12 = system: KM12
LOX IMVI = system: LOX IMVI
HOP-92 = system: HOP-92

N#Cc1nn(C2OC(COC(=O)c3ccccc3)C(OC(=O)c3ccccc3)C2OC(=O)c2ccccc2)c2nc[nH]c(=O)c12 (configuration not stated)
GI50 (ACHN): 44.3 µM (inactive)
GI50 (SK-MEL-2): 85.5 µM (inactive)
GI50 (CCRF-CEM): 18.5 µM (inactive)
GI50 (RXF 393): 36.4 µM (inactive)
GI50 (SF-268): 43.1 µM (inactive)
GI50 (SK-MEL-5): 25.6 µM (inactive)
GI50 (U-251): 62.5 µM (inactive)
GI50 (SNB-75): 76 µM (inactive)
GI50 (NCI-H23): 24.4 µM (inactive)
GI50 (NCI-H226): > 100 µM (inactive)
GI50 (OVCAR-5): > 100 µM (inactive)
GI50 (OVCAR-8): 27.8 µM (inactive)
GI50 (UO-31): 56.2 µM (inactive)
GI50 (MDA-MB-435): 46.2 µM (inactive)
GI50 (SF-295): 46.5 µM (inactive)
GI50 (SW-620): 63.1 µM (inactive)
GI50 (HL-60): 34 µM (inactive)
GI50 (UACC-62): > 100 µM (inactive)
GI50 (COLO 205): 27.4 µM (inactive)
GI50 (CAKI-1): 38.5 µM (inactive)
GI50 (T47D): 46.2 µM (inactive)
GI50 (IGROV-1): 42.7 µM (inactive)
GI50 (A498): 11.4 µM (inactive)
GI50 (DU-145): 42.7 µM (inactive)
GI50 (MDA-N): 49.2 µM (inactive)
GI50 (Malme-3M): 36.1 µM (inactive)
GI50 (A549): 39.6 µM (inactive)
GI50 (SF-539): 68.4 µM (inactive)
GI50 (SK-MEL-28): 44.1 µM (inactive)
GI50 (SN12C): 77.4 µM (inactive)
GI50 (SNB-19): 72.8 µM (inactive)
GI50 (SK-OV-3): 5.57 µM (inactive)
GI50 (HCT-15): 40.1 µM
GI50 (UACC-257): > 100 µM (inactive)
GI50 (786-0): 35.9 µM (inactive)
GI50 (NCI/ADR-RES): 66.4 µM (inactive)
GI50 (HCT-116): 28.8 µM (inactive)
GI50 (OVCAR-4): 38.3 µM (inactive)
GI50 (Hs-578T): 80.9 µM (inactive)
GI50 (HCC 2998): 78.2 µM (inactive)
GI50 (OVCAR-3): 46 µM (inactive)
GI50 (MDA-MB-231): 58.3 µM (inactive)
GI50 (PC-3): 45.4 µM (inactive)
GI50 (MOLT-4): 36.6 µM (inactive)
GI50 (EKVX): 55.7 µM (inactive)
GI50 (M14): 46.1 µM (inactive)
GI50 (TK-10): > 100 µM (inactive)
GI50 (MCF7): 93.5 µM (inactive)
GI50 (HT-29): 36.2 µM (inactive)
GI50 (NCI-H460): 30.4 µM (inactive)
GI50 (SR): 30.9 µM (inactive)
GI50 (K562): 35.7 µM (inactive)
GI50 (HOP-62): 90.2 µM (inactive)
GI50 (NCI-H522): 36.9 µM (inactive)
GI50 (RPMI-8226): 39.4 µM (inactive)

CNc1ncnc2c1nnn2C
GI50 (ACHN): > 100 µM (inactive)
GI50 (SK-MEL-2): > 100 µM (inactive)
GI50 (CCRF-CEM): > 100 µM (inactive)
GI50 (RXF 393): > 100 µM (inactive)
GI50 (SK-MEL-5): > 100 µM (inactive)
GI50 (U-251): > 100 µM (inactive)
GI50 (SNB-75): > 100 µM (inactive)
GI50 (NCI-H23): > 100 µM (inactive)
GI50 (NCI-H226): > 100 µM (inactive)
GI50 (OVCAR-8): > 100 µM (inactive)
GI50 (UO-31): > 100 µM (inactive)
GI50 (MDA-MB-435): > 100 µM (inactive)
GI50 (SF-295): > 100 µM (inactive)
GI50 (KM12): > 100 µM (inactive)
GI50 (SW-620): > 100 µM (inactive)
GI50 (HL-60): > 100 µM (inactive)
GI50 (UACC-62): > 100 µM (inactive)
GI50 (COLO 205): > 100 µM (inactive)
GI50 (CAKI-1): > 100 µM (inactive)
GI50 (T47D): > 100 µM (inactive)
GI50 (IGROV-1): > 100 µM (inactive)
GI50 (A498): > 100 µM (inactive)
GI50 (DU-145): > 100 µM (inactive)
GI50 (MDA-N): > 100 µM (inactive)
GI50 (Malme-3M): > 100 µM (inactive)
GI50 (A549): > 100 µM (inactive)
GI50 (SF-539): > 100 µM (inactive)
GI50 (SK-MEL-28): > 100 µM (inactive)
GI50 (LOX IMVI): > 100 µM (inactive)
GI50 (SN12C): > 100 µM (inactive)
GI50 (SNB-19): > 100 µM (inactive)
GI50 (SK-OV-3): > 100 µM (inactive)
GI50 (HCT-15): > 100 µM
GI50 (UACC-257): > 100 µM (inactive)
GI50 (786-0): > 100 µM (inactive)
GI50 (NCI/ADR-RES): > 100 µM (inactive)
GI50 (HCT-116): > 100 µM (inactive)
GI50 (OVCAR-4): > 100 µM (inactive)
GI50 (HCC 2998): > 100 µM (inactive)
GI50 (OVCAR-3): > 100 µM (inactive)
GI50 (PC-3): > 100 µM (inactive)
GI50 (MOLT-4): > 100 µM (inactive)
GI50 (HOP-92): > 100 µM (inactive)
GI50 (EKVX): > 100 µM (inactive)
GI50 (M14): > 100 µM (inactive)
GI50 (TK-10): > 100 µM (inactive)
GI50 (MCF7): > 100 µM (inactive)
GI50 (HT-29): > 100 µM (inactive)
GI50 (K562): > 100 µM (inactive)
GI50 (HOP-62): > 100 µM (inactive)
GI50 (NCI-H522): > 100 µM (inactive)
GI50 (RPMI-8226): > 100 µM (inactive)
